Measured values taken from ChEMBL document CHEMBL1145613, “Tubulysin analogs incorporating desmethyl and dimethyl tubuphenylalanine derivatives” (Bioorg Med Chem Lett, 2008).

Key:
1A9 = assay: Antiproliferative activity against human 1A9 cells; format: functional, cell-based
[1] = Inhibition of rat brain tubulin polymerization

Compound	IC50 (1A9) [µM]	IC50 [1] [µM]
CN[C@H](C(=O)N[C@H](C(=O)N(C)[C@H](/C=C(\C)C(=O)O)C(C)C)C(C)(C)C)C(C)(C)c1ccccc1 [TALTOBULIN]	0.0003	0.7
CC[C@H](C)[C@H](NC(=O)[C@@H]1CCCCN1C)C(=O)N[C@H](CC(=O)c1nc(C(=O)N[C@H](CCC(=O)O)Cc2ccccc2)cs1)C(C)C	> 50	13
CC[C@H](C)[C@H](NC(=O)[C@H]1CCCCN1C)C(=O)N[C@H](CC(=O)c1nc(C(=O)N[C@H](CCC(=O)O)Cc2ccccc2)cs1)C(C)C	4	0.6
CC[C@H](C)[C@H](NC(=O)[C@H]1CCCN1C)C(=O)N[C@H](CC(=O)c1nc(C(=O)N[C@@H](Cc2ccccc2)CC(C)(C)C(=O)O)cs1)C(C)C	3.2	2.7
CC[C@H](C)[C@H](NC(=O)[C@@H]1CCCCN1)C(=O)N[C@H](CC(=O)c1nc(C(=O)N[C@H](CCC(=O)O)Cc2ccccc2)cs1)C(C)C	> 50	> 20
CC[C@H](C)[C@H](NC(=O)[C@H]1CCCN1C)C(=O)N[C@H](CC(=O)c1nc(C(=O)N[C@H](CCC(=O)O)Cc2ccccc2)cs1)C(C)C	24	2.3
CC[C@H](C)[C@H](NC(=O)[C@H]1CCCN1)C(=O)N[C@H](CC(=O)c1nc(C(=O)N[C@H](CCC(=O)O)Cc2ccccc2)cs1)C(C)C	> 50	> 20
CC[C@H](C)[C@H](NC(=O)[C@H]1CCCCN1)C(=O)N[C@H](CC(=O)c1nc(C(=O)N[C@H](CCC(=O)O)Cc2ccccc2)cs1)C(C)C	> 50	4.4
CC[C@H](C)[C@H](NC(=O)[C@H]1CCCCN1C)C(=O)N(COC(=O)CC(C)C)[C@H](C[C@@H](OC(C)=O)c1nc(C(=O)N[C@@H](Cc2ccc(O)cc2)C[C@H](C)C(=O)O)cs1)C(C)C [TUBULYSIN-A]		0.75
CC[C@H](C)[C@H](NC(=O)[C@@H]1CCCN1C)C(=O)N[C@H](CC(=O)c1nc(C(=O)N[C@H](CCC(=O)O)Cc2ccccc2)cs1)C(C)C	50	11
COc1ccc(/C=C\c2cc(OC)c(OC)c(OC)c2)cc1O [COMBRETASTATIN A4]	0.0036	
CC[C@H](C)[C@H](NC(=O)[C@H]1CCCCN1C)C(=O)N[C@H](CC(=O)c1nc(C(=O)N[C@@H](Cc2ccccc2)CC(C)(C)C(=O)O)cs1)C(C)C	0.3	1.5
CC[C@H](C)[C@H](NC(=O)[C@@H]1CCCN1)C(=O)N[C@H](CC(=O)c1nc(C(=O)N[C@H](CCC(=O)O)Cc2ccccc2)cs1)C(C)C	> 50	> 20
